{
  "source": "patent US20250098651A1",
  "about": "“A NON-HUMAN MAMMAL COMPRISING IN ITS GENOME AT LEAST TWO HUMAN LEUKOCYTE ANTIGEN (HLA) CLASS I ALLELES, METHODS OF MAKING SUCH MAMMAL AND USES THEREOF” (Max-Delbrueck-Centrum für Molekulare Medizin in der …, priority 2022, published 2025)",
  "key": {"[1]": {"tested_on": "CD8^+ T cells", "assay": "Peptide immunization of ABab.I mice, intracellular IFN-γ staining of CD8+ T cells", "format": "in vivo, mouse", "details": "for CD8^+ T cells produced IFN-γ: ABab.I mice, peripheral blood restimulated in vitro seven days post-injection; for mice responded: out of 6-7 mice/antigen", "method": "A 200 μl injection suspension containing 100 μg of short peptides in PBS, 100 μl of incomplete Freund's adjuvant, and 50 μg CpG oligonucleotides were injected subcutaneously on both lateral sides of hind legs. 10- to 20-week-old young ABabDII or ABab.I mice (6-7 mice/group) were immunized with a 4-week interval between prime-boosts. […] As standard controls, ABabDII^1 and ABab.I mice were immunized with 100 μg of MAGE-A1278 […] […] 7-10 days after every boost injection, peripheral blood cells from immunized mice were ACK-lysed and cultured with 1 μM respective specific or unspecific peptide in the presence of protein transport inhibitor for 5-6 hours. Post-cell fixation, cells were intracellularly stained for IFN-γ, surface stained for CD3, CD8 markers, and analyzed by flow cytometry.\nWe analyzed ABab.I mice for antigen-specific CD8^+ T cell responses against described model antigens (FIG. 19A) using peptide immunization (FIG. 20). […] The MAGE-A1 epitope, […] The unspecific peptide used in in vitro restimulations was a NY-ESO epitope, […] (SEQ ID NO: 180).\nProcedure: young mice were peptide-immunized (minimum twice) with intervals of at least 4-weeks between injections. Seven days post-booster injections, PBMCs from multi-HLA mice were stimulated in vitro with either the same peptides used for immunization (right), or unspecific peptides (left), or CD3/CD28 beads (middle, positive control). Intracellular flow cytometry staining measured the amount of IFN-γ cytokine released by the CD8^+ T cells after reacting to their respective epitopes. By flow cytometry, CD8^+ T cells were in vitro measured for CD3, CD8, and intracellularly IFN-γ expression. Dot plots in the figure depict CD8^+ IFN-γ^+ T cells (gated on CD3^+ lymphocytes). As an unspecific peptide, NY-ESO peptide ([…]) was used (as a negative control) only for in vitro stimulations."}, "[2]": {"tested_on": "CD8^+ T cells", "assay": "Peptide immunization of ABabDII mice, CD8+ T cell IFN-γ response", "format": "in vivo, mouse", "method": "A 200 μl injection suspension containing 100 μg of short peptides in PBS, 100 μl of incomplete Freund's adjuvant, and 50 μg CpG oligonucleotides were injected subcutaneously on both lateral sides of hind legs. 10- to 20-week-old young ABabDII or ABab.I mice (6-7 mice/group) were immunized with a 4-week interval between prime-boosts. Similar peptide mixtures were prepared and injected for further boosting regimens of all peptides. As standard controls, ABabDII^1 and ABab.I mice were immunized with 100 μg of MAGE-A1278 […] (SEQ ID NO: 26) peptide with a similar injection mixture. 7-10 days after every boost injection, peripheral blood cells from immunized mice were ACK-lysed and cultured with 1 μM respective specific or unspecific peptide in the presence of protein transport inhibitor for 5-6 hours. Post-cell fixation, cells were intracellularly stained for IFN-γ, surface stained for CD3, CD8 markers, and analyzed by flow cytometry.\nFor TCR candidate discovery, young ABabDII mice (n=7, 12-16 weeks) were immunized with mutant 9-mer peptides (FIG. 3B, […], SEQ ID NO: 30) at 4-week intervals. CD8^+ T cell responses were analyzed in blood one week after every boost using intracellular staining, followed by culturing the T cells and IFN-γ capture assay to sort for peptide-specific T cells (FIG. 4A). […]"}, "[3]": {"tested_on": "A375 cells", "assay": "Endogenous processing assay, co-culture with A375 cells, IFN-γ", "format": "cell-based, Homo sapiens", "details": "concluded from TCR co-culture with TRRAP+ cell lines", "description": "FIGS. 4A-4F show the generation and characterization of TRRAP S722F TCRs in ABabDII mice. FIG. 4A depicts the TCR discovery pipeline with the immunization schedule as used in an illustrative example. […] Controls with wild-type S722 peptide or without (w/o) peptide. One representative flow cytometry plot out of three responder mice is given. […] IFN-γ levels measured after overnight co-culture of PBMCs (1×10^5) either with A375 cells (mutant-S722F^+, NY-ESO^+) or with SK-Mel-37 (wild-type-S722^+, NY-ESO^+). The TCR-ESO recognizes the NY-ESO157-165 epitope. Bar graph represents mean±SD (n=2). One representation out of three co-culture experiments is given.\nTransduced T cells were co-cultured with peptide-titrated T2 (TAP^−/−) cells to ensure TCR interaction and its affinity to S722F. […] NY-ESO157-165, the HLA-A2 epitope is expressed on melanoma cells A375 and SK-Mel-37."}, "[4]": {"target": "T1, TRRAP S722F peptide on HLA-A*02:01 (human)", "T1 peptide": "KLVFGSVFL", "assay": "cytokine release"}, "[5]": {"target": "T2, TRRAP (wild-type S722) peptide on HLA-A*02:01 (human)", "T2 peptide": "KLVFGSVSL", "assay": "cytokine release"}},
  "data": [
    {"molecule": "APRGPHGGAASGL (NY- ESO peptide; NY- ESO epitope) [unspecific NY-ESO peptide used for in vitro restimulation]", "values": [
      {"measurement": "CD8^+ T cells produced IFN-γ", "setting": "[1]", "value": "No T cell responses were observed"}
    ]},
    {"molecule": "KLVFGSVEL [mutant epitope-S722F, TRRAP S722F mutant nonamer, HLA-A2-restricted]", "values": [
      {"measurement": "T cells responding in the spleen after T cell culturing", "setting": "[2]; 10^−9 M peptide and IL-2 (20 IU/ml) for 10 days", "value": "about 17%"},
      {"measurement": "T cells responded in blood", "setting": "[2]; ABabDII mice, one-week post-4th injection (3rd boost)", "value": "about 0.8%"},
      {"measurement": "endogenous processing and presentation on HLA-A2", "setting": "[3]", "value": "not endogenously processed and presented on HLA-A2"}
    ]},
    {"molecule": "KMRMRRMRR", "values": [
      {"measurement": "CD8^+ T cells produced IFN-γ", "setting": "[1]", "value": "about 1.8%"},
      {"measurement": "mice responded", "setting": "[1]", "value": 1}
    ]},
    {"molecule": "KVLEYVIKV", "values": [
      {"measurement": "CD8^+ T cells produced IFN-γ", "setting": "[1]", "value": "~1", "unit": "%"},
      {"measurement": "mice responded", "setting": "[1]", "value": 3}
    ]},
    {"molecule": "QYDPVAALF", "values": [
      {"measurement": "CD8^+ T cells produced IFN-γ", "setting": "[1]", "value": "about 0.3%"}
    ]},
    {"molecule": "SAFRCFIVY", "values": [
      {"measurement": "CD8^+ T cells produced IFN-γ", "setting": "[1]", "value": "about 0.2%"},
      {"measurement": "mice responded", "setting": "[1]", "value": 3}
    ]},
    {"molecule": "TPRVTGGGAM", "values": [
      {"measurement": "CD8^+ T cells produced IFN-γ", "setting": "[1]", "value": "About 1.4%"}
    ]},
    {"molecule": "VRIGHLYIL", "values": [
      {"measurement": "CD8^+ T cells produced IFN-γ", "setting": "[1]", "value": "about 0.23%"},
      {"measurement": "mice responded", "setting": "[1]", "value": 1}
    ]},
    {"molecule": "VVGAVGVGK", "values": [
      {"measurement": "CD8^+ T cells produced IFN-γ", "setting": "[1]", "value": "About 6.9%"},
      {"measurement": "mice responded", "setting": "[1]", "value": 6}
    ]},
    {"molecule": "TRRAP S722F TCR, dominant TCR Valpha17-Vbeta27 pair (TCR) alpha TRAV17-1 TRAJ58 CDR3: CATDAEETSGSRLTF beta TRBV27-1 TRBJ2-1 CDR3: CASSLAGIYNEQFF", "values": [
      {"measurement": "binding result", "setting": "[4]", "value": "recognises"},
      {"measurement": "binding result", "setting": "[5]", "value": "no recognition"}
    ]}
  ]
}
